Measurements: patent US20220008409A1, “CANCER COMBINATION THERAPY USING QUINOLINE CARBOXAMIDE DERIVATIVE” (KABUSHIKI KAISHA YAKULT HONSHA, priority 2018, published 2022)

Assays:
MDA-MB-231 cells = assay: Combination effect of STX-1159 and mTOR inhibitor, WST-8 assay; assay type: cell-based, Human; conditions: in combination with STX-1159, 48 hours
Protocol: Human breast cell line MDA-MB-231 cells or MDA-MB-468 cells (in the case of rapamycin) were inoculated on a 96-well plate to 2.5×10^3/100 μL/well or 1.0×10^3/100 μL/well, and cultured under conditions of 5% CO2 and 37° C. To the control group was added DMSO, so as to be a final concentration of 0.05%. Subsequently, the cells were cultured under conditions of 5% CO2 and 37° C. for 48 hours, and the viable cell count was then evaluated by WST-8 assay. […] The absorbance of water-soluble formazan generated by enzymatic activity of mitochondria in cells was measured at 450 nm using a microplate reader (Molecular Devices, Model: SpectraMax Plus).
Human breast cell line MDA-MB-231 cells or MDA-MB-468 cells (in the case of rapamycin) were inoculated on a 96-well plate so as to be 2.5×10^3/100 μL/well or 1.0×10^3/100 μL/well, respectively. The cells were incubated in a CO2 incubator at 37° C. After 24 hours, the supernatant was discarded, and 80 μL of a culture medium for assay was added. […] The mixture was left standing in a CO2 incubator at 37° C. for 48 hours, the supernatant was then removed, and the mixture was washed once with 100 μL of PBS(−). A WST-8 solution diluted by 10 times with the medium for assay was added at 100 μL/well, and the absorbance was measured at a wavelength of 450 nm using a plate reader. CI was calculated from the measured value.

NCI-H2228 = assay: Combination effect by median-effect method, WST-8 assay; assay type: cell-based, Human; conditions: in combination with STX-1159, 72 hours
From the text: (§1) NCI-H2228, NCI-H1975, SK-BR-3, Hep3B, MCF-7, Caov-3, A2058, K562 and SUP-B15 were purchased from American Type Culture Collection, SAS and HuH-7 were purchased from National Institutes of Biomedical Innovation, Health and Nutrition, and K1, FTC-133 and Ishikawa were purchased European Collection of Authenticated Cell Cultures. […] Fetal bovine serum (hereinafter, abbreviated as FBS) and MCDB 105 culture medium were purchased from Sigma Aldrich (Cat. Nos. 172012 and 117-500), and RMPI1640 culture medium, DMEM medium, Ham's F-12 medium, MEM medium and IMDM culture medium were purchased Thermo Fisher Scientific (Cat. Nos. A1049101, 11995-065, 11765-054, 11095-080 and 12440-053).
(§2) The agents were singly added one day after the cells were inoculated. […] The absorbance of water-soluble formazan generated by enzymatic activity of mitochondria in cells was measured at 450 nm using a microplate reader (Molecular Devices, Model: SpectraMax Plus). This was evaluated as the viable cell count to calculate a 50% cell growth inhibitory concentration (hereinafter, abbreviated as IC50). The reference dose of each agent was set based on IC50 (Table 3).
(§3) One day after the cells were inoculated, for single groups, STX-1159 and the agents were each added so as to be a final concentration which is ¼ times, ½ times, 1 time, 2 times or 4 times the reference dose, and for combination groups, STX-1159 and the agents were added so as to be a final concentration where STX-1159 and the agents combined were each ¼ times, ½ times, 1 time, 2 times or 4 times the reference dose. […] The fraction affected (hereinafter, abbreviated as fa) was calculated from the following expression:
(§4) fa=1−(viable cell count in agent exposure group)/(viable cell count in control group).
(§5) By a median-effect method using combination effect analyzing software CalcuSyn (HULINKS), the combination index (hereinafter, abbreviated as CI) was calculated from fa obtained when STX-1159 and the agents were exposed alone or in combination. Evaluation of the combination effect was based on grading by CI in Table 4. In calculation of CI, the average of the values from two or more experiments was employed.

[1] = Combination effect by median-effect method, summary over the cell lines of Example 1; assay type: cell-based; conditions: in combination with STX-1159; summary of Table 5
Protocol: The fraction affected (hereinafter, abbreviated as fa) was calculated from the following expression: fa=1-(viable cell count in agent exposure group)/(viable cell count in control group). […] Evaluation of the combination effect was based on grading by CI in Table 4. In calculation of CI, the average of the values from two or more experiments was employed.

A2058 = assay: Combination effect by median-effect method, WST-8 assay; assay type: cell-based, Human; conditions: in combination with STX-1159, 72 hours
From the text: as §1, §2, §3, §4, §5

K562 = assay: as above; assay type: cell-based, Human; conditions: in combination with STX-1159, 48 hours
From the text: as §1
(§6) The cells were inoculated on a 96-well plate to the density shown in Table 2, and were cultured under conditions of 5% CO2 and 37° C. The agents were singly added one day after the cells were inoculated. To the control group was added DMSO, so as to be a final concentration of 0.05%. Subsequently, the cells were cultured under conditions of 5% CO2 and 37° C. for the time shown in Table 2, and the number living cells was evaluated by WST-8 assay. That is, 10 μL of a WST-8 kit solution (Kishida Chemical Co., ltd, Cat. No. 260-96162) was added to each well, and the cells were cultured under conditions of 5% CO2 and 37° C. for 1 to 2 hours. The absorbance of water-soluble formazan generated by enzymatic activity of mitochondria in cells was measured at 450 nm using a microplate reader (Molecular Devices, Model: SpectraMax Plus). This was evaluated as the viable cell count to calculate a 50% cell growth inhibitory concentration (hereinafter, abbreviated as IC50).
(§7) The cells were inoculated on a 96-well plate so as to be the density shown in Table 2, and were cultured under conditions of 5% CO2 and 37° C. One day after the cells were inoculated, for single groups, STX-1159 and the agents were each added so as to be a final concentration which is ¼ times, ½ times, 1 time, 2 times or 4 times the reference dose, and for combination groups, STX-1159 and the agents were added so as to be a final concentration where STX-1159 and the agents combined were each ¼ times, ½ times, 1 time, 2 times or 4 times the reference dose. To the control group was added DMSO, so as to be a final concentration of 0.1%. Subsequently, the cells were cultured under conditions of 5% CO2 and 37° C. for the time shown in Table 2, and the number living cells was measured by WST-8 assay. The fraction affected (hereinafter, abbreviated as fa) was calculated from the following expression:
as §4, §5

SUP-B15 = assay: as above; assay type: cell-based; conditions: in combination with STX-1159, 72 hours
From the text: as §1, §6
as §7, with “expression: […]” for “expression:”
By a median-effect method using combination effect analyzing software CalcuSyn (HULINKS), the combination index (hereinafter, abbreviated as CI) was calculated from fa obtained when STX-1159 and the agents were exposed alone or in combination. […]

K1 = assay: as above; assay type: cell-based, Human; conditions: in combination with STX-1159, 72 hours
From the text: as §1, §2, §3, §4, §5

FTC-133 = conditions: in combination with STX-1159, 72 hours
From the text: as §1, §6, §7, §4, §5

Row | Compound | CI (MDA-MB-231 cells) | Combination effect (MDA-MB-231 cells) | also measured
1 | CNC(=O)c1cccc(-c2ccc3c(N4CCOC[C@@H]4C)nc(N4CCOC[C@@H]4C)nc3n2)c1 [AZD2014] | 0.51 | Synergetic effect (0.3 < CI ≤ 0.7) | 
2 | COc1ccc(-c2ccc3c(N4CCOC[C@@H]4C)nc(N4CCOC[C@@H]4C)nc3n2)cc1CO [AZD8055] | 0.36 | Synergetic effect (0.3 < CI ≤ 0.7) | 
3 | Cc1cc(Nc2ncc(Cl)c(Nc3ccccc3S(=O)(=O)C(C)C)n2)c(OC(C)C)cc1C1CCNCC1 [Ceritinib, ceritinib] |  |  | CI (NCI-H2228): 0.34; Combination effect (NCI-H2228): Synergetic effect (0.3 < CI ≤ 0.7); combination effect by the median-effect method [1]: synergetic effect
4 | C[C@@H](Oc1cc(-c2cnn(C3CCNCC3)c2)cnc1N)c1c(Cl)ccc(F)c1Cl [Crizotinib] |  |  | CI (NCI-H2228): 0.50; Combination effect (NCI-H2228): Synergetic effect (0.3 < CI ≤ 0.7); combination effect by the median-effect method [1]: synergetic effect
5 | CC(C)(C)c1nc(-c2cccc(NS(=O)(=O)c3c(F)cccc3F)c2F)c(-c2ccnc(N)n2)s1 [Dabrafenib, dabrafenib] |  |  | CI (A2058): 0.73; Combination effect (A2058): Moderate synergetic effect (0.7 < CI ≤ 0.85); combination effect by the median-effect method [1]: synergetic effect
6 | Cc1nc(Nc2ncc(C(=O)Nc3c(C)cccc3Cl)s2)cc(N2CCN(CCO)CC2)n1 [Dasatinib, dasatinib] |  |  | CI (K562): 0.78; Combination effect (K562): Moderate synergetic effect (0.7 < CI ≤ 0.85); CI (SUP-B15): 0.71; Combination effect (SUP-B15): Moderate synergetic effect (0.7 < CI ≤ 0.85)
7 | Cc1c(CN2CCN(C(=O)[C@H](C)O)CC2)sc2c(N3CCOCC3)nc(-c3cnc(N)nc3)nc12 [GDC-0980(RG7422)] | 0.86 | Light synergetic effect (0.85 < CI ≤ 0.9) | 
8 | O=C1NC(=O)/C(=C/c2ccc3nccc(-c4ccncc4)c3c2)S1 [GSK1059615] | 0.64 | Synergetic effect (0.3 < CI ≤ 0.7) | 
9 | COc1ncc(-c2ccc3nccc(-c4ccnnc4)c3c2)cc1NS(=O)(=O)c1ccc(F)cc1F [GSK2126458] | 0.63 | Synergetic effect (0.3 < CI ≤ 0.7) | 
10 | CC(C)n1nc(-c2ccc3oc(N)nc3c2)c2c(N)ncnc21 [INK 128] | 0.56 | Synergetic effect (0.3 < CI ≤ 0.7) | 
11 | Cc1ccc(NC(=O)c2ccc(CN3CCN(C)CC3)cc2)cc1Nc1nccc(-c2cccnc2)n1 [Imatinib] |  |  | CI (K562): 0.83; Combination effect (K562): Moderate synergetic effect (0.7 < CI ≤ 0.85); CI (SUP-B15): 0.85; Combination effect (SUP-B15): Moderate synergetic effect (0.7 < CI ≤ 0.85); combination effect by the median-effect method [1]: synergetic effect
12 | COc1ccc(-c2ccc3c(N4CCOCC4)nc(N4C[C@@H](C)O[C@@H](C)C4)nc3n2)cc1CO [KU-0063794] | 0.36 | Synergetic effect (0.3 < CI ≤ 0.7) | 
13 | COc1cccc2cc(-c3nc([C@H]4CC[C@H](C(=O)O)CC4)n4ncnc(N)c34)[nH]c12 [OSI-027] | 0.49 | Synergetic effect (0.3 < CI ≤ 0.7) | 
14 | COc1ccc(-c2cc3c(C)nc(N)nc3n([C@H]3CC[C@H](OCCO)CC3)c2=O)cn1 [PF-04691502] | 0.73 | Moderate synergetic effect (0.7 < CI ≤ 0.85) | 
15 | CN(C)C1CCN(C(=O)c2ccc(NC(=O)Nc3ccc(-c4nc(N5CCOCC5)nc(N5CCOCC5)n4)cc3)cc2)CC1 [PF-05212384(PKI-587)] | 0.63 | Synergetic effect (0.3 < CI ≤ 0.7) | 
16 | Oc1cccc(-c2nc(N3CCOCC3)c3oc4ncccc4c3n2)c1 [PI-103] | 0.60 | Synergetic effect (0.3 < CI ≤ 0.7) | 
17 | CC(C)n1nc(-c2cc3cc(O)ccc3[nH]2)c2c(N)ncnc21 [PP242] | 0.84 | Moderate synergetic effect (0.7 < CI ≤ 0.85) | 
18 | Nc1ncnc2c1c(-c1cnc3[nH]ccc3c1)nn2C1CCCC1 [PP-121] | 0.88 | Light synergetic effect (0.85 < CI ≤ 0.9) | 
19 | CCC(=O)N1CCN(c2ccc(-n3c(=O)ccc4cnc5ccc(-c6cnc7ccccc7c6)cc5c43)cc2C(F)(F)F)CC1 [Torin 1] | 0.68 | Synergetic effect (0.3 < CI ≤ 0.7) | 
20 | Nc1ccc(-c2ccc3ncc4ccc(=O)n(-c5cccc(C(F)(F)F)c5)c4c3c2)cn1 [Torin 2] | 0.66 | Synergetic effect (0.3 < CI ≤ 0.7) | 
21 | CC(=O)Nc1cccc(-n2c(=O)n(C3CC3)c(=O)c3c(Nc4ccc(I)cc4F)n(C)c(=O)c(C)c32)c1 [Trametinib, trametinib] |  |  | CI (A2058): 0.78; Combination effect (A2058): Moderate synergetic effect (0.7 < CI ≤ 0.85)
22 | COc1cc2c(Nc3ccc(Br)cc3F)ncnc2cc1OCC1CCN(C)CC1 [Vandetanib, vandetanib] |  |  | CI (K1): 0.69; Combination effect (K1): Synergetic effect (0.3 < CI ≤ 0.7); CI (FTC-133): 0.75; Combination effect (FTC-133): Moderate synergetic effect (0.7 < CI ≤ 0.85)
23 | c1cncc(CN2CCC(n3ncc4c(N5CCOCC5)nc(-c5ccc6[nH]ccc6c5)nc43)CC2)c1 [WAY-600] | 0.64 | Synergetic effect (0.3 < CI ≤ 0.7) | 
24 | COC(=O)Nc1ccc(-c2nc(N3CCOCC3)c3cnn(C4CCN(Cc5cccnc5)CC4)c3n2)cc1 [WYE-687] | 0.85 | Moderate synergetic effect (0.7 < CI ≤ 0.85) | 
25 | CNC(=O)Nc1ccc(-c2nc(N3CC4CCC(C3)O4)c3cnn(C4CCC5(CC4)OCCO5)c3n2)cc1 [WYE-125132] | 0.40 | Synergetic effect (0.3 < CI ≤ 0.7) | 
